# Experimental data from patent US6806359B1, “Hormone receptor compositions and methods” (The Salk Institute for Biological Studies, priority 1986, dated 2004).
# Biological target: T1, GR (Homo sapiens, UniProt P04150)
# T1 sequence (P04150 1-777): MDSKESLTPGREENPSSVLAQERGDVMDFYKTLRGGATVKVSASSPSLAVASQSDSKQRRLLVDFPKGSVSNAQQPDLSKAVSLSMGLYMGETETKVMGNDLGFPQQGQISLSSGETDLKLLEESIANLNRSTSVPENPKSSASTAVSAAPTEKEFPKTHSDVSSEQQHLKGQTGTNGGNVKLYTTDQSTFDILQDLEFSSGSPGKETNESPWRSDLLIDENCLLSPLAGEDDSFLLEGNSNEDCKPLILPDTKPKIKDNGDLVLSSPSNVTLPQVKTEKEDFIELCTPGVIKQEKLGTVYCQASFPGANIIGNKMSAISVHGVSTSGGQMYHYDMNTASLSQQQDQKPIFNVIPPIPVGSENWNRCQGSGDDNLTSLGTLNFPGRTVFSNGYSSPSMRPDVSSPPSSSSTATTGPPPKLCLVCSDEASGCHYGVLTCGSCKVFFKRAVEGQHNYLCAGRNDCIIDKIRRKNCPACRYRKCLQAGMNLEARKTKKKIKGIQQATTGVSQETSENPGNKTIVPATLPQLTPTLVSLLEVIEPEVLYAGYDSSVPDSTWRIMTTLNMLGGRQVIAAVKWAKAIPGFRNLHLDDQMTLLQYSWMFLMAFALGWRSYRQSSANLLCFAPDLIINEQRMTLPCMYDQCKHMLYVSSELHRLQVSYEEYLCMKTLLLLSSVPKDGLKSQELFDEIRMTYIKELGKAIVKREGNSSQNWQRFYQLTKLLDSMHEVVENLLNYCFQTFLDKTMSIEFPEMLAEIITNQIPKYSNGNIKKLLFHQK
# Assay: hGR functional assay: CAT activity in CV-1 cells cotransfected with pRShGR alpha (or mutant) and pMTVCAT
# Format: cell-based
# Parameters: The expression vector linking the RSV LTR to full length hGR cDNA (pRShGR alpha) was designed to obtain high levels of expression; expressed in transfected cells; host or cells: CV-1 monkey kidney cells, cotransfected with pMTVCAT
# Conditions: 100 nM steroid, cotransfected CV-1 cells
# Text: The assay system and strategy used to study the expression of functional hGR from the cloned cDNA (See Experimental Section I) is shown in FIG. 11. In these experiments, a glucocorticoid-responsive promoter/enhancer element linked to a reporter gene was introduced into a receptor-negative cell. […] For our assay, we chose to use the MTV LTR fused to the sequence coding for chloramphenicol acetyltransferase (CAT) (EC2.3.1.28). […] Cotransfection of pMTVCAT (or pGMCAT) with a receptor expression plasmid provides functional receptors that allow induction of CAT activity upon treatment of the transfected cells with glucocorticoid hormone. In addition, biochemical studies such as steroid binding activity and Western blot analysis of the expressed receptors can be performed simultaneously.
# The cells are then cultured in the presence or absence of hormone. CV-1 cells were used to monitor induction of CAT activity, and COS cells were used to measure steroid-binding capacity and the expression of hGR protein.
# CAT assays were performed as indicated in Experimental Procedures (See Section II. F.). C, chloramphenicol; AC, 3-acetylchloramphenicol.
# The levels of CAT activity were plotted as percentages of the maximal response observe in a particular experiment.
# Each plasmid preparation used for transfection was purified using two consecutive CsCl-EtBr equilibrium gradients. […]
smiles,measurement,value
C[C@]12CC[C@@H]3c4ccc(O)cc4CC[C@H]3[C@@H]1CC[C@@H]2O [oestradiol],induction of CAT activity by steroid,failed to induce CAT activity
